Results taken from publication PMC9820592, “Novel Chiral Ru(II) Complexes as Potential c-myc G-quadruplex DNA Stabilizers Inducing DNA Damage to Suppress Triple-Negative Breast Cancer Progression” (International Journal of Molecular Sciences, 2022).

Key:
HepG2 cells = assay: MTT assay, HepG2 cells; type: cell-based, human; settings: 72 h, read-out: Inhibitory Effect (IC50/μM) HepG2
Protocol: (§1) Liver cancer HepG2 cells, lung cancer A549 cells, breast cancer MCF-7 and MDA-MB-231 cells, human nasopharyngeal carcinoma CNE-1 cells, and human immortalized keratinocyte HaCaT cells were seeded in 96-well plates (5 × 10^3 cells per well) and cultured at 37 °C and 5% CO2 for 24 h. Cells were treated with different concentrations of the complexes (0, 1.5625, 3.125, 6.25, 12.5, 25, 50, and 100 µM) for 72 h. After adding 20 µL MTT (5 mg/mL) solution to each well, the cells were incubated for 4 h, and then 150 µL DMSO was added to each well. The optical density of each well was detected by a microplate reader at a wavelength of 570 nm. The cell survival rate (%) = A(experimental group)/A(control group) × 100%, and the IC50 value was analyzed and calculated based on the survival rate.

A549 cells = assay: MTT assay, A549 cells; type: cell-based, human; settings: 72 h, read-out: Inhibitory Effect (IC50/μM) A549
Protocol: as §1

MDA-MB-231 cells [1] = assay: MTT assay, MDA-MB-231 cells; type: cell-based, human; settings: 72 h, read-out: Inhibitory Effect (IC50/μM) MDA-MB-231
Protocol: as §1

MCF-7 cells = assay: MTT assay, MCF-7 cells; type: cell-based, human; settings: 72 h, read-out: Inhibitory Effect (IC50/μM) MCF-7
Protocol: as §1

HaCaT cells = assay: MTT assay, normal HaCaT keratinocytes; type: cell-based; settings: 72 h, normal human keratinocytes, read-out: Inhibitory Effect (IC50/μM) HaCaT
Protocol: as §1

CNE-1 cells = assay: MTT assay, CNE-1 cells; type: cell-based, human; settings: 72 h, read-out: Inhibitory Effect (IC50/μM) CNE-1
Protocol: as §1

c-myc G-quadruplex DNA [2] = assay: PCR-stop assay; type: biochemical, human; settings: Taq polymerase
Protocol: In this study, c-myc G4 DNA and its reverse complementary sequence c-myc rev were heated to 95 °C for 5 min, allowed to cool to room temperature, and incubated at 4 °C overnight. The system was supplemented with dNTPs and Taq polymerase for PCR amplification; heated at 95 °C for 3 min, 94 °C for 30 s, and 58 °C for 30 s, with an extension at 72 °C for 30 s (30 cycles); and analyzed by 15% nondenatured polyacrylamide gel electrophoresis and silver staining.

MDA-MB-231 cells [3] = assay: ICP detection of Ru content in cells; type: cell-based, human; settings: 24 h, control 0.4
Protocol: MDA-MB-231 cells were seeded in 10 cm cell culture dishes. After cell adherence, the cells were treated with the drug (0, 2.5, 5, and 10 μM) for 24 h. After 24 h, the cells were washed with PBS three times and collected by trypsin. The number of collected cells was counted by a cell counter. Then, the cells were digested in 1 mL HNO3 solution by microwave digestion at 120 °C for 3 min, and 1 mL of this solution was transferred to a 5 mL volumetric flask, diluted with distilled water to volume, and mixed. The Ru content of these solutions was analyzed by an ICP optical emission spectrometer (NCS, Plasma 2000). All measurements were repeated three times.

c-myc G-quadruplex DNA [4] = assay: FRET melting assay; type: binding, human; settings: free DNA Tm 59.5 °C
Protocol: Carboxy fluorescein (FAM) and 6-carboxytetramethyl rhodamine (TAMRA) double fluorescent-labeled c-myc G4 DNA (5′−FAM-TGAGGGTGGGAGGGGTAA-TAMRA−3′) were heated to 95 °C in Tris-HCl-KCl buffer (containing 10 mM Tris-HCl, 100 mM KCl, pH 7.4) for 5 min and slowly cooled to room temperature. To ds26, double-stranded DNA ([…]) is a competitive binder, research Λ/Δ−3 with c-myc G4 selectivity binding ability of DNA. A Bio-Radiq5 real-time PCR detection system was used to measure the fluorescence melting curve. Approximately 1 μM (5 μL) FPU22T was mixed with a series of 5 μL compound solutions of different concentrations, and 15 μLTris-HCl-KCl buffer was added to the PCR 8 tube to obtain a total volume of 25 μL. A real-time fluorescence quantitative PCR instrument was used, and incubation was performed at 30 °C for 30 min. The program temperature range was set to 30–95 °C at a temperature interval of 1 °C, and recording was performed after balancing for 30 s to detect the fluorescence value of FAM. The conditions of the reaction system were similar to those of the FRET melting point test except that different concentrations of ds26 were added.

MDA-MB-231 cells [5] = assay: EdU proliferation assay; type: cell-based, human; settings: control 50.2%
Protocol: The inhibitory effect of the chiral DPPZ-based Ru(II) complexes (Λ/Δ−1−3) was assessed against different human tumor cancer cells, such as breast cancer MCF-7, MDA-MB-231, lung cancer A549, liver carcinoma HepG2, nasopharyngeal carcinoma CNE-1, and human normal keratinocyte HaCaT cells, by MTT assay. […] Moreover, the inhibition of MDA-MB-231 cell proliferation by Δ−3 was detected by using an EdU (5-ethynyl-2′-deoxyuridine) staining kit, and EdU was incorporated into newly synthesized DNA in the sample cells. The red fluorescent azide is small enough to diffuse freely through native tissues and DNA, and it covalently cross-links to the EdU in a “click” chemistry reaction.

Molecule: N.N.[Cl][Pt][Cl] [Cis-platin, cisplatin, reference compound]
- IC50 (HepG2 cells): 12.7 ± 0.7 µM
- IC50 (A549 cells): 9.9 ± 0.25 µM
- IC50 (MDA-MB-231 cells [1]): 25.9 ± 1.9 µM
- IC50 (MCF-7 cells): 14.27 ± 0.07 µM
- IC50 (HaCaT cells): 7.1 ± 0.5 µM

Molecule: Δ-[Ru(bpy)2(BrDPPZ)](ClO4)2 [Δ−2]
- IC50 (HepG2 cells): > 100 µM
- IC50 (A549 cells): 89.9 ± 11.3 µM
- IC50 (MDA-MB-231 cells [1]): 94.5 ± 9.1 µM
- IC50 (CNE-1 cells): > 100 µM
- IC50 (MCF-7 cells): > 100 µM
- IC50 (HaCaT cells): > 100 µM

Molecule: Δ-[Ru(bpy)2(DPPZ)](ClO4)2 [Δ−1]
- IC50 (HepG2 cells): > 100 µM
- IC50 (A549 cells): > 100 µM
- IC50 (MDA-MB-231 cells [1]): > 100 µM
- IC50 (CNE-1 cells): > 100 µM
- IC50 (MCF-7 cells): > 100 µM
- IC50 (HaCaT cells): > 100 µM

Molecule: Λ-[Ru(bpy)2(3-NBEDPPZ)](ClO4)2 [Λ−3]
- IC50 (HepG2 cells): 74.8 ± 2.4 µM
- IC50 (A549 cells): 55.4 ± 2.4 µM
- minimum concentration necessary for effective inhibition (PCR products) (c-myc G-quadruplex DNA [2]): 5 µM
- Ru content in cells (MDA-MB-231 cells [3]; 2.5 μM): 0.56 ng/mL per 1 × 10^4 cells
- Ru content in cells (MDA-MB-231 cells [3]; 5 μM): 1.44 ng/mL per 1 × 10^4 cells
- Ru content in cells (MDA-MB-231 cells [3]; 10 μM): 2.47 ng/mL per 1 × 10^4 cells
- ΔTm (c-myc G-quadruplex DNA [4]; complex 0.5 μM): approximately 2.2 °C
- ΔTm (c-myc G-quadruplex DNA [4]; complex 1.0 μM): ~4.9 °C
- IC50 (MDA-MB-231 cells [1]): 53.5 ± 1.7 µM
- proliferation rate (EdU) (MDA-MB-231 cells [5]; 10 μM): 34.0%
- proliferation rate (EdU) (MDA-MB-231 cells [5]; 20 μM): 27.5%
- proliferation rate (EdU) (MDA-MB-231 cells [5]; 40 μM): 11.3%
- IC50 (CNE-1 cells): > 100 µM
- IC50 (HaCaT cells): > 100 µM

Molecule: Λ-[Ru(bpy)2(BrDPPZ)](ClO4)2 [Λ−2]
- IC50 (HepG2 cells): > 100 µM
- IC50 (A549 cells): 91.5 ± 10.8 µM
- IC50 (MDA-MB-231 cells [1]): 92.1 ± 12.1 µM
- IC50 (CNE-1 cells): > 100 µM
- IC50 (MCF-7 cells): > 100 µM
- IC50 (HaCaT cells): > 100 µM

Molecule: Λ-[Ru(bpy)2(DPPZ)](ClO4)2 [Λ−1]
- IC50 (HepG2 cells): > 100 µM
- IC50 (A549 cells): > 100 µM
- IC50 (MDA-MB-231 cells [1]): 60.8 ± 7.41 µM
- IC50 (CNE-1 cells): > 100 µM
- IC50 (MCF-7 cells): > 100 µM
- IC50 (HaCaT cells): > 100 µM
